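Values below derive from 48-hour exposures of cells grown in 96-well plates, with endpoints linearly interpolated between the two concentrations bracketing the appropriate inhibition level. GI50 = concentration required for 50% inhibition of growth.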 The source made the active and inactive calls. Cut-off read from the data, not from the text of the source: active = GI50 up to about 1.1 µM and inactive = higher.
Legend:
Assay in all cases: DTP human tumour cell line panel, 48 h
SN12C = tested on: SN12C
RPMI-8226 = tested on: RPMI-8226
SK-MEL-5 = tested on: SK-MEL-5
RXF 393 = tested on: RXF 393
SR = tested on: SR
M14 = tested on: M14
CCRF-CEM = tested on: CCRF-CEM
NCI-H522 = tested on: NCI-H522
HCT-15 = tested on: HCT-15
SK-MEL-28 = tested on: SK-MEL-28
K562 = tested on: K562
SF-295 = tested on: SF-295
SNB-75 = tested on: SNB-75
HT-29 = tested on: HT-29
LOX IMVI = tested on: LOX IMVI
A498 = tested on: A498
NCI-H226 = tested on: NCI-H226
NCI-H23 = tested on: NCI-H23

Structure (SMILES)	GI50 (SN12C)	GI50 (RPMI-8226)	GI50 (SK-MEL-5)	GI50 (RXF 393)	GI50 (SR)	GI50 (M14)	GI50 (CCRF-CEM)	GI50 (NCI-H522)	GI50 (HCT-15)	GI50 (SK-MEL-28)	GI50 (K562)	GI50 (SF-295)	GI50 (SNB-75)	GI50 (HT-29)	GI50 (LOX IMVI)	GI50 (A498)	GI50 (NCI-H226)	GI50 (NCI-H23)
Clc1cc2ns[s+]c2cc1Cl	58.9 µM (inactive)	31 µM (inactive)	> 37 µM (inactive)	> 100 µM (inactive)	23.2 µM (inactive)	9.73 µM (inactive)	33.4 µM (inactive)	27.6 µM (inactive)	4.34 µM	> 81.8 µM (inactive)	4.55 µM (inactive)	47.1 µM (inactive)	21 µM (inactive)	29.3 µM (inactive)	9.48 µM (inactive)	> 100 µM (inactive)	> 100 µM (inactive)	73.8 µM (inactive)
CCOC(=O)C1(C#N)C(c2ccccc2)CC(O)(c2ccc(Cl)cc2)C(C(=O)c2ccc(Cl)cc2)C1c1ccccc1 (centres undefined)	> 100 µM (inactive)	76.6 µM (inactive)	> 100 µM (inactive)	37.8 µM (inactive)	> 100 µM (inactive)	> 100 µM (inactive)	> 100 µM (inactive)	35 µM (inactive)	> 100 µM	> 100 µM (inactive)	> 10 µM (inactive)	41 µM (inactive)	21.1 µM (inactive)	> 100 µM (inactive)	> 100 µM (inactive)		> 100 µM (inactive)	> 100 µM (inactive)
COc1cc(CN[C@H]2CCc3cc(OC)c(OC)c(OC)c3-c3ccc(SC)c(=O)cc32)cc(OC)c1	0.0367 µM (active)	0.0324 µM (active)	0.0336 µM (active)	0.0266 µM (active)	< 0.01 µM (active)	0.0322 µM (active)		0.0245 µM (active)	0.0483 µM	0.0386 µM (active)	0.0317 µM (active)	0.0336 µM (active)	0.0243 µM (active)	0.0249 µM (active)	0.0465 µM (active)	0.0306 µM (active)	0.0318 µM (active)	0.0286 µM (active)
O=C(c1ccccc1)c1cccc(C(=O)c2ccccc2)c1	> 100 µM (inactive)	> 100 µM (inactive)	78.9 µM (inactive)	76.4 µM (inactive)	97.9 µM (inactive)	> 100 µM (inactive)	63.8 µM (inactive)	> 100 µM (inactive)		> 100 µM (inactive)	> 100 µM (inactive)	> 100 µM (inactive)	82 µM (inactive)	> 100 µM (inactive)	33 µM (inactive)	> 100 µM (inactive)	34.3 µM (inactive)	98.2 µM (inactive)
Cc1ccc(Oc2ccc(C(=O)c3cccc(C(=O)c4ccc(Oc5ccc(C)cc5)cc4)n3)cc2)cc1	> 100 µM (inactive)		> 100 µM (inactive)	> 100 µM (inactive)	> 100 µM (inactive)	> 100 µM (inactive)	> 100 µM (inactive)	> 100 µM (inactive)	> 100 µM	> 100 µM (inactive)	> 100 µM (inactive)	> 100 µM (inactive)	42.2 µM (inactive)	> 100 µM (inactive)	> 100 µM (inactive)	> 100 µM (inactive)	> 100 µM (inactive)	> 100 µM (inactive)
CC(C)=CC(=O)N1CCN(C(=O)C=C(C)C)CC1	> 100 µM (inactive)	> 100 µM (inactive)	> 100 µM (inactive)		> 100 µM (inactive)	> 100 µM (inactive)	> 100 µM (inactive)	> 100 µM (inactive)	> 100 µM	> 100 µM (inactive)	> 100 µM (inactive)	> 100 µM (inactive)	> 100 µM (inactive)	> 100 µM (inactive)	> 100 µM (inactive)	> 100 µM (inactive)		> 100 µM (inactive)
O=C1C2C3CC(C4C5C=CC(C5)C34)C2C2C3CC(C12)C1C2C=CC(C2)C31 (centres undefined)	> 100 µM (inactive)		> 100 µM (inactive)	> 100 µM (inactive)	> 100 µM (inactive)	> 100 µM (inactive)	61.4 µM (inactive)	> 100 µM (inactive)	> 100 µM	> 100 µM (inactive)	> 100 µM (inactive)	> 100 µM (inactive)	> 100 µM (inactive)	> 100 µM (inactive)	28.8 µM (inactive)	> 100 µM (inactive)	> 100 µM (inactive)	> 100 µM (inactive)
O=C(O)c1nc(-c2ccc(Cl)c(Cl)c2)nc2ccc(Cl)cc12	> 100 µM (inactive)	> 100 µM (inactive)	> 100 µM (inactive)	28.3 µM (inactive)	64.4 µM (inactive)		> 10 µM (inactive)		> 100 µM	> 100 µM (inactive)	> 10 µM (inactive)	45.9 µM (inactive)	13.6 µM (inactive)	> 100 µM (inactive)		> 100 µM (inactive)		38.3 µM (inactive)
CN(C)CC/C(=N\Nc1ccc(Cl)c(Cl)c1)c1ccccc1	2.14 µM (inactive)	2.31 µM (inactive)	1.84 µM (inactive)	2.55 µM (inactive)	2.13 µM (inactive)		2.11 µM (inactive)	2.16 µM (inactive)	1.98 µM	2.52 µM (inactive)	1.93 µM (inactive)	1.9 µM (inactive)	2.4 µM (inactive)	1.96 µM (inactive)	1.69 µM (inactive)	2.81 µM (inactive)		1.84 µM (inactive)
